For assay [1], the system named is T47D. Description: Inhibition of human progesterone receptor B protein expression transfected in human T47D cells at 25 nM by Western blot. The assay is classed as functional, cell-based.
Assay [2] concerns T47D. Nature of the assay: Inhibition of human progesterone receptor A protein expression transfected in human T47D cells at 25 nM by Western blot. The assay is classed as functional, cell-based.
The subject of assay [3] is T47D. Description: Reduction in cell proliferation of human T47D cells expressing human progesterone receptor by FACS method. The class given is functional, cell-based. (In flow cytometry, cells or beads pass a laser one at a time.)
Assay [4] relates to T47D. Nature of the assay: Inhibition of human progesterone receptor B gene expression transfected in human T47D cells at 200 nM by RT-PCR. The class given is functional, cell-based.
The test system of assay [5] is T47D. Description: Inhibition of human progesterone receptor A protein expression transfected in human T47D cells at 200 nM by Western blot. The class given is functional.
Assay [6] has as its system T47D. Nature of the assay: Induction of morphology changes in human T47D cells expressing human progesterone receptor assessed as increase in cell height by confocal microscopy. The class given is functional, cell-based.
Assay [7] deals with T47D. Nature of the assay: Inhibition of human progesterone receptor B protein expression transfected in human T47D cells at 200 nM in presence of 10 nM of estradiol by Western blot. The assay is classed as functional, cell-based. Background: A western blot detects proteins with antibodies after separation by electrophoresis.
For assay [8], the system named is T47D. Description: Inhibition of human progesterone receptor B protein expression transfected in human T47D cells at 200 nM by Western blot. The assay is classed as functional.
Assay [9] has as its system T47D. Description: Inhibition of human progesterone receptor A protein expression transfected in human T47D cells at 200 nM in presence of 10 nM of estradiol by Western blot. The assay is classed as functional, cell-based.
In assay [10] the test system is T47D. Nature of the assay: Increase in Ezrin mRNA expression in human T47D cells expressing human progesterone receptor by RT-PCR relative to untreated control. The assay is classed as functional.
For assay [11], the system named is T47D. Description: Inhibition of human progesterone receptor A gene expression transfected in human T47D cells at 200 nM by RT-PCR. The class given is functional, cell-based.

The results in this text go back to ChEMBL document CHEMBL1240303, “Inhibiting transcription of chromosomal DNA with antigene peptide nucleic acids” (2005).

The source made the active and inactive calls. No cut-off for these calls is given here.

For orientation: inhibition means the percentage by which the read-out fell short of the control. With `Cc1cn(CC(=O)N(CCNC(=O)CN(CCNC(=O)CN(CCNCC(=O)N(CCNC(=O)CN(CCNC(=O)CN(CCNC(=O)CN(CCNC(=O)CN(CCNC(=O)CN(CCNC(=O)CN(CCNC(=O)CN(CCNC(=O)CN(CCNC(=O)CN(CCNC(=O)CN(CCNC(=O)CN(CCNC(=O)CNC(=O)[C@@H](N)CCCCN)C(=O)Cn2c(N)ccnc2=O)C(=O)Cn2cnc3c(N)ncnc32)C(=O)Cn2cc(C)c(=O)[nH]c2=O)C(=O)Cn2cnc3nc(N)[nH]c(=O)c32)C(=O)Cn2cnc3c(N)ncnc32)C(=O)Cn2c(N)ccnc2=O)C(=O)Cn2cnc3nc(N)[nH]c(=O)c32)C(=O)Cn2cnc3c(N)ncnc32)C(=O)Cn2c(N)ccnc2=O)C(=O)Cn2cc(C)c(=O)[nH]c2=O)C(=O)Cn2cnc3nc(N)[nH]c(=O)c32)C(=O)Cn2cnc3nc(N)[nH]c(=O)c32)C(=O)Cn2cnc3c(N)ncnc32)C(=O)Cn2c(N)ccnc2=O)CC(=O)NCCN(CC(=O)NCCN(CC(=O)NCCN(CC(=O)NCCN(CC(=O)N[C@@H](CCCCN)C(=O)O)C(=O)Cn2c(N)ccnc2=O)C(=O)Cn2c(N)ccnc2=O)C(=O)Cn2c(N)ccnc2=O)C(=O)Cn2c(N)ccnc2=O)c(=O)[nH]c1=O`, the inhibition result in [1] and in assay [2] was “Active” throughout.
Consider `Cc1cn([C@@H]2O[C@H](COP(=O)(O)O[C@H]3[C@@H](O)[C@H](n4cnc5c(=O)[nH]c(N)nc54)O[C@@H]3COP(=O)(O)O[C@H]3[C@@H](O)[C@H](n4ccc(=O)[nH]c4=O)O[C@@H]3COP(=O)(O)O[C@H]3[C@@H](O)[C@H](n4cnc5c(N)ncnc54)O[C@@H]3COP(=O)(O)O[C@H]3C[C@H](n4ccc(N)nc4=O)O[C@@H]3COP(=O)(O)O[C@H]3[C@@H](O)[C@H](n4ccc(=O)[nH]c4=O)O[C@@H]3COP(=O)(O)O[C@H]3C[C@H](n4cnc5c(=O)[nH]c(N)nc54)O[C@@H]3COP(=O)(O)O[C@H]3[C@@H](O)[C@H](N4CC=C(N)NC4=O)O[C@@H]3COP(=O)(O)O[C@H]3[C@@H](O)[C@H](n4ccc(=O)[nH]c4=O)O[C@@H]3COP(=O)(O)O[C@H]3[C@@H](O)[C@H](n4cnc5c(=O)[nH]c(N)nc54)O[C@@H]3COP(=O)(O)O[C@H]3[C@@H](O)[C@H](n4cnc5c(N)ncnc54)O[C@@H]3COP(=O)(O)O[C@H]3[C@@H](O)[C@H](n4ccc(N)nc4=O)O[C@@H]3COP(=O)(O)O[C@H]3[C@@H](O)[C@H](n4ccc(N)nc4=O)O[C@@H]3COP(=O)(O)O[C@H]3[C@@H](O)[C@H](n4ccc(=O)[nH]c4=O)O[C@@H]3COP(=O)(O)O[C@H]3C[C@H](n4cnc5c(=O)[nH]c(N)nc54)O[C@@H]3COP(=O)(O)O[C@H]3[C@@H](O)[C@H](n4cnc5c(N)ncnc54)O[C@@H]3COP(=O)(O)O[C@H]3[C@@H](O)[C@H](n4cnc5c(=O)[nH]c(N)nc54)O[C@@H]3COP(=O)(O)O[C@H]3[C@@H](O)[C@H](n4cnc5c(=O)[nH]c(N)nc54)O[C@@H]3COP(=O)(O)O[C@H]3[C@@H](O)[C@H](n4cnc5c(=O)[nH]c(N)nc54)O[C@@H]3COP(=O)(O)O[C@H]3[C@@H](O)[C@H](n4cnc5c(=O)[nH]c(N)nc54)O[C@@H]3CO)[C@@H](OP(=O)(O)OC[C@H]3O[C@@H](n4cc(C)c(=O)[nH]c4=O)C[C@@H]3O)[C@H]2O)c(=O)[nH]c1=O`, for which the inhibition result in assay [1] and in assay [2] was “Active” throughout.
Take `Cc1cn(CC(=O)N(CCNC(=O)CN(CCNC(=O)CN(CCNC(=O)CN(CCNC(=O)CN(CCNC(=O)CN(CCNC(=O)CNC(=O)[C@@H](N)CCCCN)C(=O)Cn2cc(C)c(=O)[nH]c2=O)C(=O)Cn2cnc3c(=O)[nH]c(N)nc32)C(=O)Cn2cnc3c(N)ncnc32)C(=O)Cn2cnc3c(=O)[nH]c(N)nc32)C(=O)Cn2ccc(N)nc2=O)CC(=O)NCCN(CC(=O)NCCN(CC(=O)NCCN(CC(=O)NCCN(CC(=O)NCCN(CC(=O)NCCN(CC(=O)NCCN(CC(=O)NCCN(CC(=O)NCCN(CC(=O)NCCN(CC(=O)NCCN(CC(=O)NCCN(CC(=O)NCCN(CC(=O)NC(CCCCN)C(=O)O)C(=O)Cn2cc(C)c(=O)[nH]c2=O)C(=O)Cn2cnc3c(=O)[nH]c(N)nc32)C(=O)Cn2cnc3c(=O)[nH]c(N)nc32)C(=O)Cn2cnc3c(=O)[nH]c(N)nc32)C(=O)Cn2cnc3c(N)ncnc32)C(=O)Cn2cnc3c(N)ncnc32)C(=O)Cn2cnc3c(N)ncnc32)C(=O)Cn2ccc(N)nc2=O)C(=O)Cn2cnc3c(=O)[nH]c(N)nc32)C(=O)Cn2cnc3c(=O)[nH]c(N)nc32)C(=O)Cn2cnc3c(N)ncnc32)C(=O)Cn2cnc3c(N)ncnc32)C(=O)Cn2cnc3c(=O)[nH]c(N)nc32)c(=O)[nH]c1=O` (stereo not given in full): the outcome in assay [3] and in assay [6] was Active. Also, the inhibition entry in [4] and in assay [11] was “inactive” throughout. Besides, the inhibition at 0.2 µM in assay [5] and in assay [8] was 75% in each case. Also, the inhibition result in [7] and in [9] was “Active” throughout. The “fold change (FC)” value in assay [10] stood at 8.
On to `Cc1cn(CC(=O)N(CCNC(=O)CN(CCNC(=O)CN(CCNC(=O)CNC(=O)[C@@H](N)CCCCN)C(=O)Cn2cc(C)c(=O)[nH]c2=O)C(=O)Cn2cnc3c(=O)[nH]c(N)nc32)CC(=O)NCCN(CC(=O)NCCN(CC(=O)NCCN(CC(=O)NCCN(CC(=O)NCCN(CC(=O)NCCN(CC(=O)NCCN(CC(=O)NCCN(CC(=O)NCCN(CC(=O)NCCN(CC(=O)NCCN(CC(=O)NCCN(CC(=O)NCCN(CC(=O)NCCN(CC(=O)NCCN(CC(=O)NCCN(CC(=O)N[C@@H](CCCCN)C(=O)O)C(=O)Cn2ccc(N)nc2=O)C(=O)Cn2cnc3c(=O)[nH]c(N)nc32)C(=O)Cn2cnc3c(N)ncnc32)C(=O)Cn2ccc(N)nc2=O)C(=O)Cn2cnc3c(N)ncnc32)C(=O)Cn2ccc(N)nc2=O)C(=O)Cn2ccc(N)nc2=O)C(=O)Cn2cc(C)c(=O)[nH]c2=O)C(=O)Cn2cnc3c(=O)[nH]c(N)nc32)C(=O)Cn2cnc3c(N)ncnc32)C(=O)Cn2ccc(N)nc2=O)C(=O)Cn2ccc(N)nc2=O)C(=O)Cn2cnc3c(=O)[nH]c(N)nc32)C(=O)Cn2cnc3c(=O)[nH]c(N)nc32)C(=O)Cn2cc(C)c(=O)[nH]c2=O)C(=O)Cn2ccc(N)nc2=O)c(=O)[nH]c1=O`, for which the outcome in [3] and in assay [6] was Active. The inhibition result in assay [4] and in [11] was “inactive” each time. In addition, the inhibition at 0.2 µM in assay [5] and in [8] was 75% in each case. The inhibition result in [7], in assay [1], in [2] and in [9] was “Active” throughout. In assay [10], the “fold change (FC)” value was determined as 5.
In the case of `Cc1cn(CC(=O)N(CCNC(=O)CN(CCNC(=O)CN(CCNC(=O)CN(CCNC(=O)CN(CCNC(=O)CN(CCNC(=O)CN(CCNC(=O)CN(CCNC(=O)CN(CCNC(=O)CN(CCNC(=O)CN(CCNC(=O)CN(CCNC(=O)CN(CCNC(=O)CN(CCNC(=O)CN(CCNC(=O)CNC(=O)[C@@H](N)CCCCN)C(=O)Cn2ccc(N)nc2=O)C(=O)Cn2ccc(N)nc2=O)C(=O)Cn2cnc3c(N)ncnc32)C(=O)Cn2cnc3c(=O)[nH]c(N)nc32)C(=O)Cn2cc(C)c(=O)[nH]c2=O)C(=O)Cn2ccc(N)nc2=O)C(=O)Cn2ccc(N)nc2=O)C(=O)Cn2cnc3c(N)ncnc32)C(=O)Cn2ccc(N)nc2=O)C(=O)Cn2cnc3c(N)ncnc32)C(=O)Cn2cnc3c(=O)[nH]c(N)nc32)C(=O)Cn2ccc(N)nc2=O)C(=O)Cn2cc(C)c(=O)[nH]c2=O)C(=O)Cn2cnc3c(=O)[nH]c(N)nc32)CC(=O)NCCN(CC(=O)NCCN(CC(=O)NCCN(CC(=O)NCCN(CC(=O)N[C@@H](CCCCN)C(=O)O)C(=O)Cn2cc(C)c(=O)[nH]c2=O)C(=O)Cn2ccc(N)nc2=O)C(=O)Cn2cnc3c(N)ncnc32)C(=O)Cn2ccc(N)nc2=O)c(=O)[nH]c1=O`, the result in assay [3] and in [6] was Active. Besides, the inhibition entry in [4] and in [11] was “inactive” in each case. Moreover, the inhibition at 0.2 µM in assay [5] and in assay [8] was 75% in each case. Further, the inhibition result in [7] and in [9] was “Active” throughout. In assay [10], the “fold change (FC)” value is on record as 3.5.
For `Cc1cn(CC(=O)N(CCNC(=O)CN(CCNC(=O)CNC(=O)[C@H](N)CCCCN)C(=O)Cn2c(N)ccnc2=O)CC(=O)NCCN(CC(=O)NCCN(CC(=O)NCCN(CC(=O)NCCN(CC(=O)NCCN(CC(=O)NCCN(CC(=O)NCCN(CC(=O)NCCN(CC(=O)NCCN(CC(=O)NCCN(C(=O)CNCCN(CC(=O)NCCN(CC(=O)NCCN(CC(=O)NCCN(CC(=O)NCCN(CC(=O)NCCN(CC(=O)NCCN(CC(=O)N[C@@H](CCCCN)C(=O)O)C(=O)Cn2c(N)ccnc2=O)C(=O)Cn2cnc3nc(N)[nH]c(=O)c32)C(=O)Cn2c(N)ccnc2=O)C(=O)Cn2c(N)ccnc2=O)C(=O)Cn2cc(C)c(=O)[nH]c2=O)C(=O)Cn2c(N)ccnc2=O)C(=O)Cn2cnc3c(N)ncnc32)C(=O)Cn2c(N)ccnc2=O)C(=O)Cn2cnc3nc(N)[nH]c(=O)c32)C(=O)Cn2cc(C)c(=O)[nH]c2=O)C(=O)Cn2c(N)ccnc2=O)C(=O)Cn2cnc3c(N)ncnc32)C(=O)Cn2c(N)ccnc2=O)C(=O)Cn2c(N)ccnc2=O)C(=O)Cn2cnc3c(N)ncnc32)C(=O)Cn2cnc3nc(N)[nH]c(=O)c32)C(=O)Cn2cc(C)c(=O)[nH]c2=O)c(=O)[nH]c1=O`, the inhibition entry in [1] and in [2] was “inactive” in each case.
